Values after ≈ are worked out from the molar mass of the structure shown.

The first data set in a line: Ratio of drug concentration in brain to plasma in CD1 mouse at 1 mg/kg, iv measured at […] by LC-MS/MS analysis. It counts as ADME, organism-based. Conditions: time 0.25 hrs.
For `NCc1cccc(-c2cnc(Nc3ccc(F)cc3)o2)c1`, the Kp at […] is 14.5.
The same measure, in the same setting: the same measure for `CN(c1ccc(F)cc1)c1ncc(-c2cccc(C(=O)O)c2)o1`: 0.0213; for `Cc1noc(-c2cccc(-c3cnc(Nc4ccc(F)cc4)o3)c2)n1`: 6.93.
In the case of `CNC(=O)c1cccc(-c2cnc(N(C)c3ccc(F)cc3)o2)c1`, the Kp at […] was 1.21.

Another data set is described as follows: Drug concentration in CD1 mouse plasma at 1 mg/kg, iv measured at […] by LC-MS/MS analysis. In kind it is ADME, organism-based. The conditions noted are these: time 0.25 hrs.
With `NCc1cccc(-c2cnc(Nc3ccc(F)cc3)o2)c1`, the concentration at […] was determined as 32.8 ng/mL.
Still for that read-out and setting: for `CN(c1ccc(F)cc1)c1ncc(-c2cccc(C(=O)O)c2)o1` the value was 788 ng/mL.
The compound `Cc1noc(-c2cccc(-c3cnc(Nc4ccc(F)cc4)o3)c2)n1` returned a concentration at […] of 119 ng/mL.
The same measure, in the same setting: for `CNC(=O)c1cccc(-c2cnc(N(C)c3ccc(F)cc3)o2)c1` the value was 164 ng/mL.

The next data set in a line: Drug concentration in CD1 mouse brain at 1 mg/kg, iv measured at 0.5 hrs by LC-MS/MS analysis. It counts as ADME, organism-based. Conditions: read-out: Ct.
Consider `NCc1cccc(-c2cnc(Nc3ccc(F)cc3)o2)c1`, for which the concentration at 0.5 h turned out to be 297 ng/g.
On the same count and under the same terms, for `CN(c1ccc(F)cc1)c1ncc(-c2cccc(C(=O)O)c2)o1` the value was 7.27 ng/g.
The same measure, in the same setting: for `Cc1noc(-c2cccc(-c3cnc(Nc4ccc(F)cc4)o3)c2)n1` the value was 357 ng/g.
Turning to `CNC(=O)c1cccc(-c2cnc(N(C)c3ccc(F)cc3)o2)c1`, the concentration at 0.5 h stood at 30.9 ng/g.

Another data set in a line: Kinetic solubility of compound at pH 7.4 by shake flask method. Conditions: buffer, read-out: Kinetic_solubility. In kind it is physicochemical.
In the case of `Fc1cccnc1Nc1nc(-c2ccccn2)cs1`, the solubility kinetic was found to be 45.4 µM (≈ 12.4 µg/mL).
Turning to `O=C(O)c1cccc(-c2noc(-c3ccccc3F)n2)c1`, the solubility kinetic is 70.5 µM (≈ 20 µg/mL).
Still for that read-out and setting: the same measure for `NCc1cccc(-c2cnc(Nc3ccc(F)cc3)o2)c1`: 50.8 µM (≈ 14.4 µg/mL); for `COC(=O)c1ccc(-c2cnc(Nc3ccccc3F)o2)cc1`: below 1 µM; for `O=C(O)c1cccc(-c2cnc(-c3ccccc3F)o2)c1`: 69.5 µM (≈ 19.7 µg/mL).
On the same count and under the same terms, for `COC(=O)c1cccc(-c2cnc(Nc3ccc(F)cc3)o2)c1` the value was below 1 µM; for `CN(c1ccc(F)cc1)c1ncc(-c2cccc(C(=O)O)c2)o1`, 277 µM (≈ 86.5 µg/mL).
Regarding `O=C(O)c1cccc(-c2csc(Nc3ccccc3)n2)c1`, the solubility kinetic is 70.2 µM (≈ 20.8 µg/mL).
Still for that read-out and setting: for `Fc1cccc(-c2csc(Nc3ccccc3F)n2)c1` the value was below 1 µM.
On to `COc1cccnc1Nc1nc(-c2ccccn2)cs1`, for which the solubility kinetic was 1.2 µM (≈ 0.341 µg/mL).
Same read-out and setting: the same measure for `O=C(O)c1cccc(-c2cnc(Nc3ccc(F)cc3F)o2)c1`: 69 µM (≈ 21.8 µg/mL); for `Fc1ccccc1Nc1nc(-c2ccccc2)cs1`: below 1 µM.
Same read-out and setting: the same measure for `O=C(O)c1cccc(-c2nc(Nc3ccccc3F)cs2)c1`: above 100 µM; for `O=C(O)c1cccc(-c2csc(Nc3ccc(F)cc3)n2)c1`: 77.7 µM (≈ 24.4 µg/mL).
Same read-out and setting: for `CNC(=O)c1cccc(-c2cnc(Nc3ccc(F)cc3)o2)c1` the value was 3.1 µM (≈ 0.965 µg/mL); for `Nc1cccc(-c2cnc(Nc3ccc(F)cc3)o2)c1`, 15.2 µM (≈ 4.09 µg/mL); for `OCc1cccc(-c2csc(Nc3ccccc3F)n2)c1`, 30.9 µM (≈ 9.28 µg/mL).
As to `CC(=O)Nc1cccc(-c2cnc(Nc3ccc(F)cc3)o2)c1`, the solubility kinetic is 5 µM (≈ 1.56 µg/mL).
Still for that read-out and setting: for `O=C(O)c1cccc(-c2csc(Nc3ccccc3F)n2)c1` the value was 80.9 µM (≈ 25.4 µg/mL); for `CNC(=O)c1cccc(-c2cnc(N(C)c3ccc(F)cc3)o2)c1`, 60.4 µM (≈ 19.7 µg/mL).
Same read-out and setting: the same measure for `O=C(O)c1ccc(-c2csc(-c3ccccc3F)n2)cc1`: 38.4 µM (≈ 11.5 µg/mL); for `Cc1cccnc1Nc1ncc(-c2ccccn2)o1`: 72.5 µM (≈ 18.3 µg/mL); for `O=C(O)c1cccc(-c2csc(-c3ccccc3F)n2)c1`: 55.2 µM (≈ 16.5 µg/mL).
Turning to `COC(=O)c1cccc(-c2cnc(Nc3cccc(F)c3)o2)c1`, the solubility kinetic is below 1 µM.
On the same count and under the same terms, for `COc1cccc(-c2csc(Nc3ccccc3F)n2)c1` the value was 49.3 µM (≈ 14.8 µg/mL).

A short description of another data set: Oral bioavailability in CD1 mouse at 5 mg/kg by LC-MS/MS analysis. In kind it is ADME, organism-based. Conditions: in vivo.
In turn, `O=C(O)c1cccc(-c2cnc(Nc3ccccc3F)o2)c1` showed a bioavailability of 15.6%.
`O=C(O)c1cccc(-c2csc(Nc3ccccc3F)n2)c1` returned a bioavailability of 26.6%.

A short description of the next data set: Ratio of drug concentration in brain to plasma in CD1 mouse at 1 mg/kg, iv measured at 0.5 hrs by LC-MS/MS analysis. It counts as ADME, organism-based.
Settings: not given
With `NCc1cccc(-c2cnc(Nc3ccc(F)cc3)o2)c1`, the Kp at 0.5 h was 14.3.
Same read-out and setting: the same measure for `CN(c1ccc(F)cc1)c1ncc(-c2cccc(C(=O)O)c2)o1`: 0.0137.
Same read-out and setting: the same measure for `Cc1noc(-c2cccc(-c3cnc(Nc4ccc(F)cc4)o3)c2)n1`: 4.81; for `CNC(=O)c1cccc(-c2cnc(N(C)c3ccc(F)cc3)o2)c1`: 1.02.

The next data set in a line: Cmax in CD1 mouse at 5 mg/kg, po by LC-MS/MS analysis. It counts as ADME, organism-based. More on the design: route oral, dose 5 mg/kg. Conditions: in vivo.
Turning to `O=C(O)c1cccc(-c2cnc(Nc3ccccc3F)o2)c1`, the maximum concentration (Cmax) was found to be 92 ng/mL.
The same measure, in the same setting: for `O=C(O)c1cccc(-c2csc(Nc3ccccc3F)n2)c1` the value was 101 ng/mL.

The nature of a further data set: Drug concentration in CD1 mouse plasma at 1 mg/kg, iv measured at 0.5 hrs by LC-MS/MS analysis. In kind it is ADME, organism-based.
Settings: not given
Regarding `NCc1cccc(-c2cnc(Nc3ccc(F)cc3)o2)c1`, the concentration at 0.5 h worked out at 21 ng/mL.
The same measure, in the same setting: the same measure for `CN(c1ccc(F)cc1)c1ncc(-c2cccc(C(=O)O)c2)o1`: 529 ng/mL; for `Cc1noc(-c2cccc(-c3cnc(Nc4ccc(F)cc4)o3)c2)n1`: 74.4 ng/mL.
On the same count and under the same terms, for `CNC(=O)c1cccc(-c2cnc(N(C)c3ccc(F)cc3)o2)c1` the value was 31.1 ng/mL.

The nature of the next data set: Drug concentration in CD1 mouse brain at 1 mg/kg, iv measured at […] by LC-MS/MS analysis. In kind it is ADME, organism-based. The conditions noted are these: time 0.25 hrs, read-out: Ct.
For `NCc1cccc(-c2cnc(Nc3ccc(F)cc3)o2)c1`, the concentration at […] was determined as 473 ng/g.
The same measure, in the same setting: for `CN(c1ccc(F)cc1)c1ncc(-c2cccc(C(=O)O)c2)o1` the value was 16.4 ng/g.
On the same count and under the same terms, for `Cc1noc(-c2cccc(-c3cnc(Nc4ccc(F)cc4)o3)c2)n1` the value was 821 ng/g; for `CNC(=O)c1cccc(-c2cnc(N(C)c3ccc(F)cc3)o2)c1`, 200 ng/g.

The values above are taken from ChEMBL document CHEMBL4732087, “Structure-activity relationship (SAR) studies of N-(3-methylpyridin-2-yl)-4-(pyridin-2-yl)thiazol-2-amine (SRI-22819) as NF-ҡB activators for the treatment of ALS” (Eur J Med Chem, 2021).
